Experiments:
[1] = system: smooth muscle of mouse vas deferens; assay: Organ bath safety test: success rate of transmission after application of the chemicals; type: cell-based; conditions: 1.0% vol; for function of smooth muscle (success rate of transmission): evaluated over 40 minutes
Procedure: Safety data for the components of the combination of the invention have been obtained by applying the chemicals to smooth muscle in organ bath experiments. The mouse vas deferens was isolated and placed in an electrophysiological organ bath. Extracellular recording of transmitter release from sympathetic varicosities was recorded before and after both application of each of the chemicals CH, TH or ap. The effect (“success rate”) of each of the chemicals was evaluated over 40 minutes. Success rate was measured as (number of successful transmissions/number of nerve stimulations)×100. Following this measurement, the chemicals were washed out.

[2] = system: sympathetic neurotransmission; assay: Sympathetic neurotransmission in isolated vasa differentia after chronic stress of social deprivation and predator exposure; type: in vivo; conditions: mice, social deprivation and presence of predators 10 to 12 days; odour diluted in triethyl citrate
Procedure: The effects of odours on experimental animals exposed to stressors that cause chronic stress was assessed. Mice were divided into two groups, a control group exposed to minimal stress and a group exposed to severe stress by concurrent isolation and exposure to a predator. Each group was divided into sub-groups, one not exposed to any odour (control), one exposed to triethyl citrate vehicle (control), and the other groups exposed to an odour or a mixture of odours selected from cis-2-hexen-1-ol, trans-3-hexen-1-ol, trans-2-hexen-1-ol, cis-3-hexen-1-ol, trans-2-hexenal and α-pinene. Each odour compound was diluted (0.01 to 0.05% volume) with triethyl citrate. The solutions (0.5 mL) were placed on filter paper strips and placed within 30 cm of the animal cage. The response to stress was assessed using any or a combination of telemetry measurements, post-mortem electrophysiological studies and biochemical assays of blood samples.
Isolated vasa differentia were used to assess the effects of prolonged exposure to stress and its attenuation by odours. Following exposure of the mice to one of the stressors with or without odour, the level of neurotransmission from sympathetic varicosities was examined using standard focal extracellular recording methods (Lavidis and Bennett, 1992, 1993a, 1993b; D'Arbe et al., 2002). […] The extent of the increase reflects the level of stress the animal was exposed to during the previous 6-14 days (D'Arbe et al., 1999, D'Arbe et al., 2002).
Mice were exposed to two stressors concurrently, social deprivation and the presence of predators (rats in separate cages) for 10 to 12 days with or without the following odours or combination of odours, cis-2-hexen-1-ol, trans-2-hexen-1-ol, trans-3-hexen-1-ol, trans-2-hexenal, cis-3-hexen-1-ol, α-pinene and a combination of cis-3-hexen-1-ol and trans-2-hexenal. Two controls were used: mice not exposed to stress and mice exposed to stress together with triethyl citrate vehicle. The mice were monitored for up to 4 days after the stressors were removed.
Mice were placed in cages with one mouse per cage (social deprivation) in a room that contained cages with rats (predators) without odours (control). […] Box plots of the excitatory junction currents (EJC) obtained by electrophysiological methods are shown in FIG. 2 (control) and FIG. 3 (treated) and indicate the maximum EJC amplitude (Max), the distribution of 3rd quartiles (Q3), the median, the distribution of the 1st quartiles (Q1) and the distribution of the means. The data is from 16 animals from each treatment with at least 40 recording sites.

humans = conditions: cited from earlier work
rats = conditions: cited from earlier work

| Structure (SMILES) | effect on the smooth muscle at the high concentration used [1] | function of smooth muscle (success rate of transmission) [1] | effectiveness of the odour or odour combination from most effective to least effective (mean excitatory junction potentials, FIG. 1) [2] | hypnotic effect (humans) | resting period (rats) |
| --- | --- | --- | --- | --- | --- |
| CCC/C=C/C=O [trans-2-hexenal] | relaxed smooth muscle cells | did not significantly affect | trans-2-hexenal>α-pinene |  |  |
| CC/C=C\CCO [cis-3-hexen-1-ol] |  | did not significantly affect | cis-3-hexen-1-ol>trans-2-hexenal |  |  |
| CCC/C=C\CO [cis-2-hexen-1-ol, reference compound] |  |  | cis-2-hexen-1-ol>trans-3-hexen-1-ol |  |  |
| CC/C=C/CCO [trans-3-hexen-1-ol, reference compound] |  |  | trans-3-hexen-1-ol>trans-2-hexen-1-ol |  |  |
| CC1=CCC2CC1C2(C)C (stereo not drawn) [α-pinene] |  | did not significantly affect | α-pinene>cis-2-hexen-1-ol | hypnotic effect | prolong the resting period |
| CCC/C=C/CO [trans-2-hexen-1-ol, reference compound] |  |  | least effective |  |  |
